Values quoted from earlier work, collected in patent US20070141150A1, “Pharmaceutical composition” (priority 2003, published 2007).
Structures can show the parent of a compound that is named as a salt.

Conditions: interaction between propranolol and the polyanionic methacrylic acid copolymer

CC(C)NCC(O)COc1cccc2ccccc12 (stereo not shown) [propranolol, propranolol hydrochloride]
Hill coefficient: 1.5
